Results reported in US12448394B2, “Heterocyclic pyrazole derivatives as type III receptor tyrosine kinase inhibitors” (DEVELOPMENT CENTER FOR BIOTECHNOLOGY, priority 2019, dated 2025).
pIC50: −log10 of the molar value.

Assays:
[1] = target: T1, FLT3-D835Y mutant kinase (Homo sapiens, UniProt P36888, D835Y); experiment: FLT3-D835Y mutant kinase assay (AlphaScreen); type: biochemical; settings: read-out: Ranking of IC50 values, FLT3-D835Y
T1 construct: purchased SignalChem
T1 sequence (P36888 27-993 D835Y): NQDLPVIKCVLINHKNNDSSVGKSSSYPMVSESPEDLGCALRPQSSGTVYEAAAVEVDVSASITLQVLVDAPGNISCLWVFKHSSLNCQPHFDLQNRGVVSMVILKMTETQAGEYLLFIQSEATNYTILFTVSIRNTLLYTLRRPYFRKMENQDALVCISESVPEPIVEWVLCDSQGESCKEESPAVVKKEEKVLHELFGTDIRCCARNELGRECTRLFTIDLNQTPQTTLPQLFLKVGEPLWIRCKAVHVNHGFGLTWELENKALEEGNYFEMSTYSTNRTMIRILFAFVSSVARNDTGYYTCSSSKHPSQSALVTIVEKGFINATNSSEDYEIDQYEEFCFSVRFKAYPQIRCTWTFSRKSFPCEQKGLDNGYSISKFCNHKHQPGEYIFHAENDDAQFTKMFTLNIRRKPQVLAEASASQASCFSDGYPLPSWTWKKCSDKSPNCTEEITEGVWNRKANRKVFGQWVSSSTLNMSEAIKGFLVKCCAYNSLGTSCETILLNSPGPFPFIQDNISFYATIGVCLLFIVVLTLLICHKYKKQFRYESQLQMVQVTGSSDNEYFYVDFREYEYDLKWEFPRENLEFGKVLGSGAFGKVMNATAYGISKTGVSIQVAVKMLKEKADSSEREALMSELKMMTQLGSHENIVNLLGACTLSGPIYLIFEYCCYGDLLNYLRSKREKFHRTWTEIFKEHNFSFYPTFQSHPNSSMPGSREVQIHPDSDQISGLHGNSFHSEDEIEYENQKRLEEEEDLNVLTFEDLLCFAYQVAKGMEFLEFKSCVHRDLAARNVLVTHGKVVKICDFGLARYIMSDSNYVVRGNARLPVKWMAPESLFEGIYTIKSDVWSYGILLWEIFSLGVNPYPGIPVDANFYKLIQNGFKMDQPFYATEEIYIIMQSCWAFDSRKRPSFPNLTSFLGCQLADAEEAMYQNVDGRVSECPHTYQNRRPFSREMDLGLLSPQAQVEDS
Protocol: Inhibition of FLT3-D835Y mutant kinase activity by a test compound disclosed herein was estimated by AlphaScreen (PerkinElmer). Standard assay conditions were 1 ng of recombinant FLT3-D835Y mutant kinase (SignalChem) with 6 ng Biotin-conjugated Poly-(Glu 4: Tyr 1) (Cisbio) in the assay buffer (10 μM ATP, 10 mM MOPs, pH7.0, 0.21 mM EDTA, 0.5% glycerol, 1 mg/mL BSA, 0.01% 2-mercaptoethanol, 0.001% Brij35, 10 mM MgCl2) in a final volume of 25 μL. Reactions were incubated at 30° C. for 30 min and stopped by adding 5 μL of 50 mM EDTA. Analysis of resulting product using an AlphaScreen kit and counted with Enspire Alpha (PerkinElmer). […] The IC50 values of inhibitors were determined after carrying out assays with each compound at serially diluted concentrations in duplication. The results were analyzed using linear regression software (GraphPad Prism 5; GraphPad Software Inc.)

[2] = target: T2, MET kinase (Homo sapiens, UniProt P08581); experiment: MET kinase assay (AlphaScreen, counter screen); type: biochemical; settings: read-out: Ranking of IC50 values, MET
T2 construct: purchased SignalChem
T2 sequence (P08581 25-1390): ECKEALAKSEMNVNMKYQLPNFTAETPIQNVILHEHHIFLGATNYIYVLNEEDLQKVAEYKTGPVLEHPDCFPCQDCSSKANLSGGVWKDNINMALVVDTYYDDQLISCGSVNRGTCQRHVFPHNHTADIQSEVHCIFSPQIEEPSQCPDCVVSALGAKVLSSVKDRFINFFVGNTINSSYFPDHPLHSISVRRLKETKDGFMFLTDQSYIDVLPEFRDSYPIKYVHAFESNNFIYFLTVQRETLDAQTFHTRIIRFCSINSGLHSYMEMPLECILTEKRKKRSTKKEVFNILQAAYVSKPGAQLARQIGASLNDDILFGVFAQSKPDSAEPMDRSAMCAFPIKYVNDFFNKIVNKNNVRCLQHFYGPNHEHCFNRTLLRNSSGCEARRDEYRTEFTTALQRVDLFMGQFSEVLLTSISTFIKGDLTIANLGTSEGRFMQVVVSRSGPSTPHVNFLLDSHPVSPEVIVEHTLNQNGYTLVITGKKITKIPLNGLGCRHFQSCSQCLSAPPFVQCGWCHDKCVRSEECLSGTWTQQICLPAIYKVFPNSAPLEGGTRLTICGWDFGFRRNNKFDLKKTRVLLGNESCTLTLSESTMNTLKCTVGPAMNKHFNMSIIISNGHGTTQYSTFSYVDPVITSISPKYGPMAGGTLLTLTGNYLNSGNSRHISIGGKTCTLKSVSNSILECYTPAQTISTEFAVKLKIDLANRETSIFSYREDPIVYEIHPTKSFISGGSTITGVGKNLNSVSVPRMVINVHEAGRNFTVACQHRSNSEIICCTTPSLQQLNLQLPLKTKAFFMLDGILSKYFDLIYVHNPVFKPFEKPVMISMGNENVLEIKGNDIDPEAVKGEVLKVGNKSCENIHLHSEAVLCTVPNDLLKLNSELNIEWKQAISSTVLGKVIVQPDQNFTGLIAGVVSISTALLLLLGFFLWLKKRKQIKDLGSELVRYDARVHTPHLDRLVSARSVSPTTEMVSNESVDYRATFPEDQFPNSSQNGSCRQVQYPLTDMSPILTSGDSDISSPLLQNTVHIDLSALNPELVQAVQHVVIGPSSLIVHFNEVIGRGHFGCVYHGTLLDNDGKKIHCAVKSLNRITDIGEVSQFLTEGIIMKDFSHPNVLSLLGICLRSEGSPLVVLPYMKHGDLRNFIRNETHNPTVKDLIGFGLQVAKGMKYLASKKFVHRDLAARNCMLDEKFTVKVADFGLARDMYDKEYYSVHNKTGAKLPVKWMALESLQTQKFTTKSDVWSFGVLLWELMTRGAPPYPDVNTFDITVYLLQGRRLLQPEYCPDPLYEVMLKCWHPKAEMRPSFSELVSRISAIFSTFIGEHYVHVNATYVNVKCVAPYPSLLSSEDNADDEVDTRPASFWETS
Protocol: Because MET kinase belonged to Class VIII RTK family have one transmembrane a chain linked with one extracellular β chain which is different form Class III RTK family with 5 Immunoglobin-like extracellular domains. Standard assay conditions were 1 ng of recombinant MET kinase (SignalChem) with 3 ng Biotin-conjugated Poly-(Glu 4: Tyr 1) (Cisbio) in the assay buffer ([…], 10 mM MOPs, pH 7.0, 0.21 mM EDTA, 0.5% glycerol, 1 mg/mL BSA, 0.01% 2-mercaptoethanol, 0.001% Brij35, 10 mM MgCl2) in a final volume of 25 μL. Reactions were incubated at 30° C. for 45 min and stopped by adding 5 μL of 50 mM EDTA. Analysis of resulting product using an AlphaScreen kit and counted with Enspire Alpha (PerkinElmer). […] The IC50 values of inhibitors were determined after carrying out assays with each compound at serially diluted concentrations in duplication. The results were analyzed using linear regression software (GraphPad Prism 5; GraphPad Software Inc.)

[3] = system: Molm-14 human acute myeloid leukemia cell with FLT3-ITD mutation; experiment: Molm-14 cell proliferation assay (CellTiter 96); type: cell-based; settings: Homo sapiens; Molm-14 cells, 72 hours treatment, CellTiter96; read-out: anti-proliferation activity Molm-14 (FLT3-ITD), IC50 ranking
Protocol: Inhibitions of cell growths by compounds were measured using CellTiter™-96 assay. The cytotoxicities of compounds of the invention were evaluated in cell line panels with different signaling pathway dependencies, including MV4-11 human acute myeloid leukemia cell with FLT3-ITD mutation, Molm-14 human acute myeloid leukemia cell with FLT3-ITD mutation, THP-1 human acute monocytic leukemia cell with NRAS G12D mutation, A375 melanoma cell with BRAF V600E mutation, and HCC827 NSCLC cell with EGFR exon 19 deletion mutation.
The compounds disclosed herein were tested in Molm-14 cell proliferation assay to determine their cellular potencies against FLT3 signal pathway dependent cell growths. Molm-14 cells are human acute myeloid leukemia (AML) cells harboring ligand-independent FLT3-ITD activating mutation, which renders the abnormal proliferation of the AML cells FLT3 signaling pathway dependent. Inhibition of FLT3 kinase activity will result in reduced growths and/or cell deaths. […] Briefly, cells were grown in RPMI 1640 medium supplemented with 10% heat inactivated fetal bovine serum and incubated at 37° C. in 5% CO2 atmosphere. Cells were allowed to expand until reaching saturation, at which point they were sub-cultured or harvested for assay use.
MV4-11, Molm-14, THP-1, A375, and HCC827 cells were seeded into 96-well plates at 6500, 25000, 5000, 2000 and 8000 cells/well, respectively, and incubated at 37° C., 5% CO2 overnight. Then, these seeded cells were treated with increasing concentrations of the test compounds and incubated for another 72 hours. At the end of the incubation, CellTiter96® AQueous One Solution Reagent (Promega, […]) was added and incubated for the additional 2˜4 hours. Cell viability was determined by measuring absorbance at 490 nm using EMax® microplate reader (Molecular Devices, San Jose, CA, USA).

| SMILES | pIC50 [1] | pIC50 [2] | pIC50 [3] |
| --- | --- | --- | --- |
| CN(C)c1ccc(-c2cc3c(s2)Cc2c(-c4ccc5cnn(C)c5c4)n[nH]c2-3)cn1 [Compound 5, N,N-dimethyl-5-(3-(1-methyl-1H-indazol-6-yl)-1,4-dihydrothieno [2′,3′:4,5]cyclopenta[1,2-c]pyrazol-6-yl)pyridin-2-amine] | 8.00 to 9.00 | < 6.00 | 6.52 to 7.00 |
| C[C@@H]1CN(Cc2ccc(-c3cc4c(s3)Cc3c(-c5ccc6cnn(C)c6c5)n[nH]c3-4)cn2)C[C@H](C)O1 [Compound 9, (2S,6R)-2,6-dimethyl-4-((5-(3-(1-methyl-lH-indazol-6-yl)-1,4-dihydro-thieno[2′,3′:4,5]cyclopenta [1,2-c]pyrazol-6-yl)pyridin-2-yl)methyl) morpholine] | > 9.00 | < 6.00 | > 7.52 |
| Cn1ncc2ccc(-c3n[nH]c4c3Cc3sc(-c5ccc(CN6CCOCC6)nc5)cc3-4)cc21 [Compound 10, 4-((5-(3-(1-methyl-1H-indazol-6-yl)-1,4-dihydro-thieno[2′,3′:4,5]cyclopenta [1,2-c]pyrazol-6-yl)pyridin-2-yl)methyl)morpholine] | > 9.00 | < 6.00 | > 7.52 |
| Cc1ccc(-c2cc3c(s2)Cc2c(-c4ccc5cnn(C)c5c4)n[nH]c2-3)cn1 [Compound 11, 3-(1-methyl-1H-indazol-6-yl)-6-(6-methylpyridin-3-yl)-1,4-dihydrothieno [2′,3′:4,5]cyclopenta[1,2-c] pyrazole] | > 9.00 | < 6.00 | 7.00 to 7.52 |
| C[C@@H]1CN(Cc2cccc(-c3cc4c(s3)Cc3c(-c5ccc6cnn(C)c6c5)n[nH]c3-4)c2)C[C@H](C)O1 [Compound 12, (2S,6R)-2,6-dimethyl-4-(3-(3-(1-methyl-1H-indazol-6-yl)-1,4-dihydrothieno [2′,3′:4,5]cyclopenta[1,2-c]pyrazol-6-yl)benzyl) morpholine] | 8.00 to 9.00 | < 6.00 | 6.52 to 7.00 |
| Cn1ncc2ccc(-c3n[nH]c4c3Cc3sc(-c5cccc(CN6CCOCC6)c5)cc3-4)cc21 [Compound 13, 4-(3-(3-(1-methyl-1H-indazol-6-yl)-1,4-dihydro-thieno[2′,3′:4,5]cyclopenta [1,2-c]pyrazol-6-yl)benzyl) morpholine] | 8.00 to 9.00 | < 6.00 | 7.00 to 7.52 |
| Cc1cc(-c2cc3c(s2)Cc2c(-c4ccc5cnn(C)c5c4)n[nH]c2-3)ccn1 [Compound 17, 3-(1-methyl-1H-indazol-6-yl)-6-(2-methylpyridin-4-yl)-1,4-dihydrothieno [2′,3′:4,5]cyclopenta[1,2-c] pyrazole] | 8.00 to 9.00 | < 6.00 | 7.00 to 7.52 |
| c1cc(CN2CCOCC2)ncc1-c1cc2c(s1)Cc1c(-c3ccc4cn[nH]c4c3)n[nH]c1-2 [Compound 18, 4-((5-(3-(1H-indazol-6-yl)-1,4-dihydrothieno[2′,3′:4,5]cyclopenta[1,2-c]pyrazol-6-yl)pyridin-2-yl)methyl) morpholine] | 8.00 to 9.00 | < 6.00 | > 7.52 |
| Cn1ncc2ccc(-c3n[nH]c4c3Cc3sc(-c5ccc(CN6CCOCC6)cn5)cc3-4)cc21 [Compound 95, 4-((6-(3-(1-methyl-1H-indazol-6-yl)-1,4-dihydro-thieno[2′,3′:4,5]cyclopenta [1,2-c]pyrazol-6-yl)pyridin-3-yl)methyl) morpholine] | > 9.00 | < 6.00 | – |

The remaining lines, values ahead:

| pIC50 [1] | pIC50 [2] | pIC50 [3] | SMILES |
| --- | --- | --- | --- |
| > 9.00 | < 6.00 | > 7.52 | c1cc(-c2cc3c(s2)Cc2c(-c4ccc5cn[nH]c5c4)n[nH]c2-3)ccc1CN1CCOCC1 [Compound 6, 4-(4-(3-(1H-indazol-6-yl)-1,4-dihydrothieno[2′,3′:4,5]cyclopenta[1,2-c]pyrazol-6-yl)benzyl)morpholine] |
| 8.00 to 9.00 | < 6.00 | > 7.52 | C[C@@H]1CN(Cc2ccc(-c3cc4c(s3)Cc3c(-c5ccc6cn[nH]c6c5)n[nH]c3-4)cc2)C[C@H](C)O1 [Compound 7, (2S,6R)-4-(4-(3-(1H-indazol-6-yl)-1,4-dihydrothieno[2′,3′:4,5]cyclopenta [1,2-c]pyrazol-6-yl)benzyl)-2,6-dimethylmorpholine] |
| 8.00 to 9.00 | < 6.00 | 7.00 to 7.52 | Cn1ncc2ccc(-c3n[nH]c4c3Cc3sc(-c5ccc(CN6CCOCC6)cc5)cc3-4)cc21 [Compound 8, 4-(4-(3-(1-methyl-1H-indazol-6-yl)-1,4-dihydro-thieno[2′,3′:4,5]cyclopenta [1,2-c]pyrazol-6-yl)benzyl) morpholine] |
| 8.00 to 9.00 | < 6.00 | 7.00 to 7.52 | CN1CCN(Cc2cccc(-c3cc4c(s3)Cc3c(-c5ccc6cnn(C)c6c5)n[nH]c3-4)c2)CC1 [Compound 14, 3-(1-methyl-1H-indazol-6-yl)-6-(3-((4-methylpiperazin-1-yl)methyl)phenyl)-1,4-dihydrothieno [2′,3′:4,5]cyclopenta[1,2-c] pyrazole] |
| > 9.00 | < 6.00 | > 7.52 | CN1CCN(C(=O)c2ccc(-c3cc4c(s3)Cc3c(-c5ccc6cnn(C)c6c5)n[nH]c3-4)cc2)CC1 [Compound 15, (4-(3-(1-methyl-1H-indazol-6-yl)-1,4-dihydrothieno[2′,3′:4,5]cyclopenta[1,2-c]pyrazol-6-yl)phenyl)(4-methyl-piperazin-1-yl)methanone] |
| > 9.00 | < 6.00 | > 7.52 | C[C@@H]1CN(Cc2ccc(-c3cc4c(s3)Cc3c(-c5ccc6cn[nH]c6c5)n[nH]c3-4)cn2)C[C@H](C)O1 [Compound 16, (2R,6S)-4-((5-(3-(1H-indazol-6-yl)-1,4-dihydro-thieno[2′,3′:4,5]cyclopenta [1,2-c]pyrazol-6-yl)pyridin-2-yl)methyl)-2,6-dimethylmorpholine] |
